According to patent US9969979B2, “Methods for producing cells having a phenotype of a primary human hepatocytes and compositions” (The Governors of the University of Alberta, priority 2012, dated 2018):

System: Huh7.5 cells
Experiment: Quantitative RT-PCR of hepatocyte differentiation markers in cultured Huh7.5 cells
Assay type: cell-based, human
Conditions: Huh7.5 cells grown 3 weeks, relative to FBS
Description: RNA was isolated from cells using Trizol, according to the instructions of the manufacturer. cDNA was produced from the RNA using Quantitect Reverse Transcription kit (Qiagen). Gene specific primer-probe sets were designed by Applied Biosystems. An Applied Biosystems 7900HT Fast Real-Time PCR system was used for the quantitation of gene products. Gene expression was calculated relative to HPRT according to Pfaffl (Pfaffl M W. Nucleic Acids Res 29: e45, 2001).
To further evaluate the effect of culturing cells in HS-containing medium, and to assess whether these cells underwent differentiation to a primary hepatocyte-like cell, level of expression of hepatocyte differentiation marker were assayed at 7 days and 21 days after transfer of Huh7.5 cells into HS-supplemented medium. After 7 days only minor changes in hepatocyte markers were observed. (FIG. 3A) However, after 21 days, the expression of the hepatic differentiation markers albumin and alpha1-antiTrypsin was increased approximately 4 fold in cells grown in human serum compared to FBS. The level of expression of these proteins is similar to the level of expression of human primary hepatocytes in culture.
DMSO, (dimethyl sulfoxide) has been reported to induce growth arrest in HuH-7 or -derived cells, and other hepatoma cells. (Sainz et al. (2006) J Virol 80: 10253-10257). […]

## C[S+](C)[O-] [DMSO, dimethyl sulfoxide]
  Albumin expression: slight increase
